According to US11578087B2, “Oxaborole esters and uses thereof” (priority 2016, dated 2023):

The molecules below were run on IL3000 T. congolense (drug sensitive) strain (assay: In vitro Alamar Blue 72 h drug sensitivity assay for T. congolense). Settings: Trypanosoma congolense, 72 h, bloodstream form, 69 h + 3 h Resazurin, 34° C., read-out: IC50: I Org. Growth T. congolense 3 d.
Assay type: cell-based, Trypanosoma congolense
Procedure: Example 252. In Vitro Alamar Blue 72 h Drug Sensitivity Assay for T. congolense
Compounds were tested in vitro for chemotherapeutic potency against the IL3000 T. congolense (drug sensitive) strain, using the Alamar Blue assay with several modifications. Test compounds were prepared as 10 mg/mL DMSO stocks for each assay run. Compounds were assayed in at least three separate, independent test runs and an 11-point dilution curve was used to determine the IC50 values. Bloodstream form trypanosomes were supported in HMI media containing 20% bovine serum and were incubated with test compounds for 69 h at 34° C. in a humidified atmosphere containing 5% CO2. Thereafter, 10 μL of Resazurin dye (12.5 mg in 100 mL of phosphate buffered saline, Sigma-Aldrich, Buchs, Switzerland) were added for an additional 3 h. Plates were then read using a fluorescent plate reader (Spectramax, Gemini XS, Bucher Biotec, Basel, Switzerland) using an excitation wavelength of 536 nm and an emission wavelength of 588 nm. Data points were averaged to generate sigmoidal dose-response curves and IC50 values were determined using Softmax Pro 5.2 software.

Row | SMILES | IC50
1 | Cc1cccc(C)c1OC(=O)[C@H](C)NC(=O)c1ccc2c(c1)B(O)OC2 [Example 6-001, 2,6-Dimethylphenyl (1-hydroxy-1,3-dihydrobenzo[c][1,2]oxaborole-6-carbonyl)-L-alaninate] | 10 to 5000 nM
2 | O=C(CNC(=O)c1ccc2c(c1)B(O)OC2)OCc1ccccc1 [Example 6-004, Benzyl (1-hydroxy-1,3-dihydrobenzo[c][1,2]oxaborole-6-carbonyl)glycinate] | 10 to 5000 nM
3 | NC(=O)CC[C@H](NC(=O)c1ccc2c(c1)B(O)OC2)C(=O)OCc1ccccc1 [Example 6-011, Benzyl (1-hydroxy-1,3-dihydrobenzo[c][1,2]oxaborole-6-carbonyl)-L-glutaminate] | 10 to 5000 nM
4 | O=C(OCc1ccccc1)[C@@H]1CCCN1C(=O)c1ccc2c(c1)B(O)OC2 [Example 6-012, Benzyl (1-hydroxy-1,3-dihydrobenzo[c][1,2]oxaborole-6-carbonyl)-L-prolinate] | 10 to 5000 nM
5 | CC(C)(NC(=O)c1ccc2c(c1)B(O)OC2)C(=O)OCc1ccccc1 [Example 6-013, Benzyl 2-(1-hydroxy-1,3-dihydrobenzo[c][1,2]oxaborole-6-carboxamido)-2-methylpropanoate] | 10 to 5000 nM
6 | Cc1cccc(C)c1COC(=O)[C@H](C)NC(=O)c1ccc2c(c1)B(O)OC2 [Example 6-014, 2,6-Dimethylbenzyl (1-hydroxy-1,3-dihydrobenzo[c][1,2]oxaborole-6-carbonyl)-L-alaninate] | 10 to 5000 nM
7 | C[C@H](NC(=O)c1ccc2c(c1)B(O)OC2)C(=O)OC(C)(C)c1ccccc1 [Example 6-015, 2-Phenylpropan-2-yl (1-hydroxy-1,3-dihydrobenzo[c][1,2]oxaborole-6-carbonyl)-L-alaninate] | 10 to 5000 nM
8 | COC(=O)[C@H](CCCc1ccccc1)NC(=O)c1ccc2c(c1)B(O)OC2 [Example 6-028, Methyl (S)-2-(1-hydroxy-1,3-dihydrobenzo[c][1,2]oxaborole-6-carboxamido)-5-phenylpentanoate] | 10 to 5000 nM
9 | COC(=O)[C@@H](CCCc1ccccc1)NC(=O)c1ccc2c(c1)B(O)OC2 [Example 6-029, Methyl (R)-2-(1-hydroxy-1,3-dihydrobenzo[c][1,2]oxaborole-6-carboxamido)-5-phenylpentanoate] | 10 to 5000 nM
10 | CC(C)[C@H](NC(=O)c1ccc2c(c1)B(O)OC2(C)C)C(=O)OCc1ccc(F)cc1F [Example 6-034, 2,4-Difluorobenzyl (1-hydroxy-3,3-dimethyl-1,3-dihydrobenzo[c][1,2]oxaborole-6-carbonyl)-L-valinate] | 10 to 5000 nM
11 | CC(C)[C@H](NC(=O)c1ccc2c(c1F)B(O)OC2)C(=O)OCc1ccc(F)cc1F [Example 6-037, 2,4-Difluorobenzyl (7-fluoro-1-hydroxy-1,3-dihydrobenzo[c][1,2]oxaborole-6-carbonyl)-L-valinate] | 10 to 5000 nM
12 | Cc1c(C(=O)N[C@H](C(=O)OC2COCCOC2)C(C)C)ccc2c1B(O)OC2 [Example 6-162, 1,4-dioxepan-6-yl (1-hydroxy-7-methyl-1,3-dihydrobenzo[c][1,2]oxaborole-6-carbonyl)-L-valinate] | 0.51 to 9.99 nM
13 | Cc1c(C(=O)N[C@H](C(=O)OCc2ccc(OCCN3CCCC3)cc2)C(C)C)ccc2c1B(O)OC2 [Example 6-163, 4-(2-(Pyrrolidin-1-yl)ethoxy)benzyl (1-hydroxy-7-methyl-1,3-dihydrobenzo[c][1,2]oxaborole-6-carbonyl)-L-valinate] | < 0.5 nM
14 | C[C@@H](NC(=O)c1ccc2c(c1)B(O)OC2)C(=O)OCc1ccccc1 [Example 6-175, Benzyl (1-hydroxy-1,3-dihydrobenzo[c][1,2]oxaborole-6-carbonyl)-D-alaninate] | 10 to 5000 nM
15 | COC(=O)[C@@H](NC(=O)c1ccc2c(c1)B(O)OC2)C(C)C [Example 6-179, Methyl (1-hydroxy-1,3-dihydrobenzo[c][1,2]oxaborole-6-carbonyl)-L-valinate] | 10 to 5000 nM
16 | COC(=O)[C@H](Cc1c[nH]c2ccccc12)NC(=O)c1ccc2c(c1)B(O)OC2 [Example 6-183, Methyl (1-hydroxy-1,3-dihydrobenzo[c][1,2]oxaborole-6-carbonyl)-L-tryptophanate] | 10 to 5000 nM
17 | COC(=O)[C@H](CC1CC1)NC(=O)c1ccc2c(c1)B(O)OC2 [Example 6-184, Methyl (S)-3-cyclopropyl-2-(1-hydroxy-1,3-dihydrobenzo[c][1,2]oxaborole-6-carboxamido)propanoate] | 10 to 5000 nM

Same assay, conditions: bloodstream form, 69 h + 3 h Resazurin, 34° C., read-out: IC50: I Org. Growth T. congolense 3 d

Row | SMILES | IC50
18 | COC(=O)[C@H](Cc1ccccc1)NC(=O)c1ccc2c(c1)B(O)OC2 [Example 6-181, Methyl (1-hydroxy-1,3-dihydrobenzo[c][1,2]oxaborole-6-carbonyl)-L-phenylalaninate] | 10 to 5000 nM

These molecules were tested on T. cruzi amastigote (Td Tomato-modified) in Vero cells (assay: In vitro IC50 measurement of T. cruzi amastigote killing using Td Tomato-modified T. cruzi). Settings: Trypanosoma cruzi, 72 h, fluorescence, read-out: IC50: I Org. amastigote Growth T. cruzi 3 d.
Assay type: cell-based
Procedure: Example 254. In Vitro IC50 Measurement of T. cruzi Amastigote Killing Using Td Tomato-Modified T. cruzi
The T. cruzi parasites used in this assay were genetically modified to express Td Tomato fluorescent protein. Vero cells (African green monkey kidney epithelial cells) were harvested from continuous cultures using trypsin and added to the inner 60 wells of 96-well Greiner Bio One plates (plate catalog #655090) at 200 ul/well of […]. Cells were allowed to adhere for 1 h before infection with T. cruzi. T. cruzi for infection were harvested from previously-infected Vero cells, washed, pelleted and resuspended at 5×10^6/mL. 50 uL of parasites were added to each well containing Vero cells. Compounds were prepared from 5 mM stock concentrations in DMSO to final concentrations in wells ranging from 5 uM to 5 nM. Wells were provided for negative controls, lacking compounds. Plates were placed into a 37° C. incubator for 20 min, then a “Day 0” reading was taken on a Synergy H4 plate reader to record initial fluorescence levels, at 544 (excitation) and 612 nm (emission). 96-well plates were placed in Tupperware containers with wet paper towels and incubated at 37° C. incubator for 72 h. After 72 h plates were reread (Day 3 reading) and data analyzed using Excel and/or Graphpad software. Day 0 fluorescence was subtracted from Day 3 to remove input parasite fluorescence. Growth curves are generated and 50% and 90% inhibitory concentrations are determined by nonlinear regression analysis.

Row | SMILES | IC50
19 | Cc1c(C(=O)NC2(C(=O)OCc3ccc(F)cc3)CC2)ccc2c1B(O)OC2 [Example 6-068, 4-Fluorobenzyl 1-(1-hydroxy-7-methyl-1,3-dihydrobenzo[c][1,2]oxaborole-6-carboxamido)cyclopropane-1-carboxylate] | 21 to 999 nM
20 | CC(C)[C@H](NC(=O)c1ccc2c(c1C(F)F)B(O)OC2)C(=O)OCc1ccccc1 [Example 6-079, Benzyl (7-(difluoromethyl)-1-hydroxy-1,3-dihydrobenzo[c][1,2]oxaborole-6-carbonyl)-L-valinate] | 21 to 999 nM
21 | Cc1c(C(=O)N[C@H](C(=O)OCc2ccc([S+]([O-])C(C)C)cc2)C(C)C)ccc2c1B(O)OC2 (stereo partly drawn) [Example 6-089, 4-(Isopropylsulfinyl)benzyl (1-hydroxy-7-methyl-1,3-dihydrobenzo[c][1,2]oxaborole-6-carbonyl)-L-valinate] | 21 to 999 nM
22 | Cc1c(C(=O)N[C@H](C(=O)OCCN2CCN(C)CC2)C(C)C)ccc2c1B(O)OC2 [Example 6-096, 2-(4-Methylpiperazin-1-yl)ethyl (1-hydroxy-7-methyl-1,3-dihydrobenzo[c][1,2]oxaborole-6-carbonyl)-L-valinate] | ≥ 1000 nM
23 | Cc1c(C(=O)N[C@H](C(=O)OCc2ccc(C(=O)N3CCN(C)CC3)cc2)C(C)C)ccc2c1B(O)OC2 [Example 6-105, 4-(4-Methylpiperazine-1-carbonyl)benzyl (1-hydroxy-7-methyl-1,3-dihydrobenzo[c][1,2]oxaborole-6-carbonyl)-L-valinate] | 21 to 999 nM
24 | Cc1c(C(=O)N[C@H](C(=O)OCc2ccc(C(=O)N(C)CCN(C)C)cc2)C(C)C)ccc2c1B(O)OC2 [Example 6-106, 4-((2-(Dimethylamino)ethyl)(methyl)carbamoyl)benzyl (1-hydroxy-7-methyl-1,3-dihydrobenzo[c][1,2]oxaborole-6-carbonyl)-L-valinate] | ≥ 1000 nM
25 | Cc1c(C(=O)N[C@H](C(=O)OCc2ccc(S(N)(=O)=O)cc2)C(C)C)ccc2c1B(O)OC2 [Example 6-108, 4-Sulfamoylbenzyl (1-hydroxy-7-methyl-1,3-dihydrobenzo[c][1,2]oxaborole-6-carbonyl)-L-valinate] | ≥ 1000 nM
26 | Cc1c(C(=O)N[C@H](C(=O)OCC2CCCC2)C(C)C)ccc2c1B(O)OC2 [Example 6-115, Cyclopentylmethyl (1-hydroxy-7-methyl-1,3-dihydrobenzo[c][1,2]oxaborole-6-carbonyl)-L-valinate] | ≤ 20 nM
27 | Cc1c(C(=O)N[C@H](C(=O)OCC(C)C)C(C)C)ccc2c1B(O)OC2 [Example 6-116, Isobutyl (1-hydroxy-7-methyl-1,3-dihydrobenzo[c][1,2]oxaborole-6-carbonyl)-L-valinate] | ≤ 20 nM
28 | Cc1c(C(=O)N[C@H](C(=O)OCc2ccc3ncccc3c2)C(C)C)ccc2c1B(O)OC2 [Example 6-127, Quinolin-6-ylmethyl (1-hydroxy-7-methyl-1,3-dihydrobenzo[c][1,2]oxaborole-6-carbonyl)-L-valinate] | 21 to 999 nM
29 | Cc1cc2c(cc1C(=O)N[C@H](C(=O)OCc1ccc(F)cc1)C(C)C)B(O)OC2 [Example 6-129, 4-Fluorobenzyl (1-hydroxy-5-methyl-1,3-dihydrobenzo[c][1,2]oxaborole-6-carbonyl)-L-valinate] | 21 to 999 nM
30 | Cc1c(C(=O)N[C@H](C(=O)OC[C@H](O)CO)C(C)C)ccc2c1B(O)OC2 [Example 6-147, (R)-2,3-dihydroxypropyl (1-hydroxy-7-methyl-1,3-dihydrobenzo[c][1,2]oxaborole-6-carbonyl)-L-valinate] | ≥ 1000 nM
